Here are results for 16 compounds from patent US20210228562A1, “IRAK DEGRADERS AND USES THEREOF” (Kymera Therapeutics, Inc., priority 2019, published 2021).

The structures appear in SMILES notation.

In general, DC50 refers to the midpoint of the concentration-degradation curve. A high value points to degradation only at high concentration.

The target of test [1] is T1, Ikaros (protein product of gene IKZF1) (Homo sapiens, UniProt Q13422+Q96SW2).
T1 construct: endogenous in cells; host or cells: OCI-LY10
T1 sequence (Q13422 whole entry): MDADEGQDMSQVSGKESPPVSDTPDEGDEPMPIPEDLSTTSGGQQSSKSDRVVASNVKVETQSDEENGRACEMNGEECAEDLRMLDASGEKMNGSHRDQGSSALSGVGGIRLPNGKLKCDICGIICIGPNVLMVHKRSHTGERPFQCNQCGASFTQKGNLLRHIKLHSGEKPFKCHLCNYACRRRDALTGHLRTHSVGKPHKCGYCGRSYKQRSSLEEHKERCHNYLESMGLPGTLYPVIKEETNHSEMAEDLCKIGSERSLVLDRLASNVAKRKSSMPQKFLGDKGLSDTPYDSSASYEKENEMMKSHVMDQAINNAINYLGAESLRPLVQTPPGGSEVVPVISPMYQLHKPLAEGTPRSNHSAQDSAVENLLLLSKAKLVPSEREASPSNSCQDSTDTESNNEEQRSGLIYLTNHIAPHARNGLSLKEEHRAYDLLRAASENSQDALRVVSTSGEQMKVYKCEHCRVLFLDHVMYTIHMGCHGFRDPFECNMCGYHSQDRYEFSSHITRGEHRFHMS
T1 sequence (Q96SW2 whole entry): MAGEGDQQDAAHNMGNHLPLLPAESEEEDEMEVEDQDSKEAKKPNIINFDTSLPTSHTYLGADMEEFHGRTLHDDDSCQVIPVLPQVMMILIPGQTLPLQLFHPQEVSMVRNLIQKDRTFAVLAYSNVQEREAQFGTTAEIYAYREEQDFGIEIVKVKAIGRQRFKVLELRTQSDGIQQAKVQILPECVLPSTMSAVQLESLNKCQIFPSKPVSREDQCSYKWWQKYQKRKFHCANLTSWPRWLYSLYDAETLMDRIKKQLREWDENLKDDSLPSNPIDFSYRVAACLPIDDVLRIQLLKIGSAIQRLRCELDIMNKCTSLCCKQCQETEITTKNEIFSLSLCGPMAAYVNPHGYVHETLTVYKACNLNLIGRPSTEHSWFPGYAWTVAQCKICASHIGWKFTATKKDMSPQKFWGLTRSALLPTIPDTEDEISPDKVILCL
T1 sequence (Q16531 whole entry partner): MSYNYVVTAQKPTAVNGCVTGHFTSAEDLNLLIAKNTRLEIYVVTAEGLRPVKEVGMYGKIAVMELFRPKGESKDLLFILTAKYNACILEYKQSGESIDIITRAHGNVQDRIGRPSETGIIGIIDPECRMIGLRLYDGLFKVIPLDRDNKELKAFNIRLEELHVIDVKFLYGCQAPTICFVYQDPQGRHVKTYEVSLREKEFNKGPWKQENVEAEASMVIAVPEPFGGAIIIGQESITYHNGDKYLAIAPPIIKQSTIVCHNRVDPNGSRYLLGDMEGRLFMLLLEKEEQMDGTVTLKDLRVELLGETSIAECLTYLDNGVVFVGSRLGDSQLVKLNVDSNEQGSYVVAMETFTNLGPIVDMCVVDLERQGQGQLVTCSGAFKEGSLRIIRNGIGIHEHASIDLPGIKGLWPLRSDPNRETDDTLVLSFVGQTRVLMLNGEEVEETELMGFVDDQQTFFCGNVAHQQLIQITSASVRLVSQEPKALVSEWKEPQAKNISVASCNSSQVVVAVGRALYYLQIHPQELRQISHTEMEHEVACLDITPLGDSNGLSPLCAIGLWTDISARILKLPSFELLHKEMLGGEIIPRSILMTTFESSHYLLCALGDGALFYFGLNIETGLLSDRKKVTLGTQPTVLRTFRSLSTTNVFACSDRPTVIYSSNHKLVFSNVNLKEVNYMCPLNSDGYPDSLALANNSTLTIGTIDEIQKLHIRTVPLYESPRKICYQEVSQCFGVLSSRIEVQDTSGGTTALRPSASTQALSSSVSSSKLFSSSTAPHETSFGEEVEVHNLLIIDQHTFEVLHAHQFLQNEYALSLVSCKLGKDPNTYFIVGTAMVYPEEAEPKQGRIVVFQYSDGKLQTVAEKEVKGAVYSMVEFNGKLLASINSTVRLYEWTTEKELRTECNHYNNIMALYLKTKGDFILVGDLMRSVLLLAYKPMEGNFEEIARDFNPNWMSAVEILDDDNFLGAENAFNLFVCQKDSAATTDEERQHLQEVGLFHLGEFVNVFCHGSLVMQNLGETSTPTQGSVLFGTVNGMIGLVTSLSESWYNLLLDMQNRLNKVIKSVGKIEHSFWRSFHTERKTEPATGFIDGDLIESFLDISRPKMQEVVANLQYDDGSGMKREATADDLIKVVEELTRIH
Description: Quantification of Ikaros degradation in OCI-LY10 cells (quantitative immunoblotting). It counts as cell-based. The settings on record: 6 h treatment. As to the method: (§1) Degradation of Ikaros (protein product of gene IKZF1) and Aiolos (protein product of gene IKZF3) were determined by quantitative immunoblotting as follows. OCI-LY10 cells, 2×10^6 cells/well, were treated with listed concentrations of IRAK4 degraders or control compounds in 6 well plates for 6 h. Cells were collected, washed with cold PBS, lysed in RIPA buffer (Boston BioProducts BP-115D) with protease/phosphatase inhibitor cocktail (Roche 05892791001/Roche 04906837001) and centrifuged at 13000 RPM for 20 min to precipitate insoluble material. The supernatant fraction was diluted in SDS-PAGE loading buffer (Beyotime Bio P0015) and 20 μL of each sample was resolved on 4-12% Bis-Tris SDS-PAGE gels (Novex, WG1402BOX). Resolved samples were transferred to nitrocellulose membranes by wet electro-transfer method at 250 mV for 1.5 h. The membrane was blocked with LICOR blocking buffer (LI-COR, 927-50000) for 1 hour, washed three times with TBST (CST #99975) for 5 minutes each and incubated with primary antibody prepared in block buffer with 0.1% Tween-20 (Solarbio, P8220) at 4° C. overnight. Ikaros antibody was rabbit monoclonal D6N9Y (CST #14859), at 1:1000 dilution. Aiolos antibody was rabbit monoclonal D1C1E (CST #15103), at 1:1000 dilution. Signal was normalized to mouse anti-beta-Actin monoclonal 8H10D10 (CST #3700) used at 1:10,000 dilution. After incubation in primary antibodies, membranes were washed three times with TBST, 5 minutes each, incubated with fluorescently labeled secondary antibodies anti-rabbit IgG (Licor, 926-32211) at 1:5000 dilution; anti-mouse IgG (LI-COR, 926-68070) at 1:5000 dilution, for 1 hour at RT. After incubation in secondary, membranes were washed three times with TBST, 5 minutes each and read on LICOR Odyssey imager. Data was reported as signal for Ikaros or Aiolos relative to signal for actin, and normalized to DMSO-treated control.

The target in test [2] is T2, Aiolos (protein product of gene IKZF3) (Homo sapiens, UniProt Q96SW2+Q9UKT9).
T2 construct: endogenous in cells; host or cells: OCI-LY10
T2 sequence (Q9UKT9 whole entry): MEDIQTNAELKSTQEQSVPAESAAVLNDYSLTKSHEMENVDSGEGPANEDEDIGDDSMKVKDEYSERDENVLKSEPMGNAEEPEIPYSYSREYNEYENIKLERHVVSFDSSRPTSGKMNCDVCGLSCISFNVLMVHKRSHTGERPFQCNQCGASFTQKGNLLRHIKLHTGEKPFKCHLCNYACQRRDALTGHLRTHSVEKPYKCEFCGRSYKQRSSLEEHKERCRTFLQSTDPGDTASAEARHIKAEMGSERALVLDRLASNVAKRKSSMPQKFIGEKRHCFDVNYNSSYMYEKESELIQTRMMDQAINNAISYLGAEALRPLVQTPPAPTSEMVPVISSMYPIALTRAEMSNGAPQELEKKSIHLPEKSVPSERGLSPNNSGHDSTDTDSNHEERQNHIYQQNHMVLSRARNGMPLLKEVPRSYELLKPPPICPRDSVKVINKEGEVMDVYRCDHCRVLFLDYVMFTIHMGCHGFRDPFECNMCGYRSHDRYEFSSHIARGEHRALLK
T2 sequence (Q96SW2 whole entry): as the sequence (Q96SW2 whole entry) above
T2 sequence (Q16531 whole entry partner): as the sequence (Q16531 whole entry partner) above
Briefly: Quantification of Aiolos degradation in OCI-LY10 cells (quantitative immunoblotting). It counts as cell-based. The settings on record: 6 h treatment. How it is done: as §1
Background: Immunoblotting shows a protein as a band on a membrane.

Consider `CC(C)(O)c1cc2nc(N3CC(CN4CCC5(CC4)CC(CNc4cccc6c4C(=O)N(C4CCC(=O)NC4=O)C6=O)C5)C3)sc2cc1NC(=O)c1cccc(C(F)(F)F)n1` (stereo not shown) [I-38], for which the DC50 in test [1] and in test [2] was less than 0.05 µM throughout.
Take `CC(C)(O)c1cc2nc(N3CCC(CN4CCC5(CC4)CC(Nc4cccc6c4C(=O)N(C4CCC(=O)NC4=O)C6=O)C5)CC3)sc2cc1NC(=O)c1cccc(C(F)(F)F)n1` (stereo not shown) [I-4]: the DC50 in test [1] and in test [2] was less than 0.05 µM throughout.
Regarding `COc1cc2nc([C@H]3CC[C@H](CN4CCC(CCNc5cccc6c5C(=O)N(C5CCC(=O)NC5=O)C6=O)CC4)CC3)sc2cc1NC(=O)c1cccc(C(C)(F)F)n1` (stereo partly shown) [I-9], the DC50 in test [1] was 0.05 to 0.1 µM; in test [2], less than 0.05 µM.
The like results for `CC(C)(O)c1nc2nc([C@H]3CC[C@H](CN4CC5(CC(CCNc6cccc7c6C(=O)N(C6CCC(=O)NC6=O)C7=O)C5)C4)CC3)sc2cc1NC(=O)c1cccc(C(F)(F)F)n1` (stereo partly shown) [I-43] were, in that order, less than 0.05 µM and less than 0.05 µM.
The corresponding values for `CC(C)(O)c1cc2nc(N3CC(CN4CC5(CC(CNc6cccc7c6C(=O)N(C6CCC(=O)NC6=O)C7=O)C5)C4)C3)sc2cc1NC(=O)c1cccc(C(F)(F)F)n1` (stereo not shown) [I-44] are less than 0.05 µM and less than 0.05 µM.
For the compound `COc1cc2nc([C@H]3CC[C@H](CN4CCC5(CC4)CC(CCNc4cccc6c4C(=O)N(C4CCC(=O)NC4=O)C6=O)C5)CC3)sc2cc1NC(=O)c1cccc(C)n1` (stereo partly shown) [I-12], the DC50 in test [1] and in test [2] was less than 0.05 µM each time.
In the case of `CC(C)(O)c1cc2nc(N3CCC(CN4CC5(CC(CCNc6cccc7c6C(=O)N(C6CCC(=O)NC6=O)C7=O)C5)C4)CC3)sc2cc1NC(=O)c1cccc(C(F)(F)F)n1` (stereo not shown) [I-36], the DC50 in test [1] and in test [2] was less than 0.05 µM each time.
For `COc1cc2nc([C@H]3CC[C@H](CN4CC5(CC(CCNc6cccc7c6C(=O)N(C6CCC(=O)NC6=O)C7=O)C5)C4)CC3)sc2cc1NC(=O)c1cccc(C(C)(F)F)n1` (stereo partly shown) [I-8], the DC50 in test [1] and in test [2] was less than 0.05 µM throughout.
For `COc1cc2nc([C@H]3CC[C@H](CN4CCC5(CC4)CC(Nc4cccc6c4C(=O)N(C4CCC(=O)NC4=O)C6=O)C5)CC3)sc2cc1NC(=O)c1cccc(C)n1` (stereo partly shown) [I-15], the DC50 in test [1] lay within 0.1 to 0.5 µM; in test [2], 0.05 to 0.1 µM.
`COc1cc2nc([C@H]3CC[C@H](CN4CC5(CCC(CNc6cccc7c6C(=O)N(C6CCC(=O)NC6=O)C7=O)CC5)C4)CC3)sc2cc1NC(=O)c1cccc(C(C)(F)F)n1` (stereo partly shown) [I-11]: the DC50 lay within 0.1 to 0.5 µM in test [1] and 0.05 to 0.1 µM in test [2].
As to `COc1cc2nc([C@H]3CC[C@H](CN4CCC(O[C@H]5C[C@H](Nc6cccc7c6C(=O)N(C6CCC(=O)NC6=O)C7=O)C5)CC4)CC3)sc2cc1NC(=O)c1cccc(C(F)(F)F)n1` (stereo partly shown) [I-39], the DC50 in test [1] and in test [2] was less than 0.05 µM each time.
As to `COc1cc2nc([C@H]3CC[C@H](CN4CC5(CC(CCNc6cccc7c6C(=O)N(C6CCC(=O)NC6=O)C7=O)C5)C4)CC3)sc2cc1NC(=O)c1ccnc(C)n1` (stereo partly shown) [I-16], in test [1], the DC50 was less than 0.05 µM.
Consider `COc1cc2nc([C@H]3CC[C@H](CN4CCC5(CC4)CC(CCNc4cccc6c4C(=O)N(C4CCC(=O)NC4=O)C6=O)C5)CC3)sc2cc1NC(=O)c1ccnc(C)n1` (stereo partly shown) [I-17], for which the half-maximal degradation concentration (DC50) in test [1] and in test [2] was less than 0.05 µM each time.
Regarding `CC(C)(O)c1cc2nc([C@H]3CC[C@H](CN4CC5(CC(CCCNc6cccc7c6C(=O)N(C6CCC(=O)NC6=O)C7=O)C5)C4)CC3)sc2cc1NC(=O)c1cccc(C(F)(F)F)n1` (stereo partly shown) [I-13], the DC50 in test [1] and in test [2] was less than 0.05 µM in each case.
`COc1cc2nc([C@H]3CC[C@H](CN(C)[C@H]4CC[C@@]5(CC4)C[C@@H](CNc4cccc6c4C(=O)N(C4CCC(=O)NC4=O)C6=O)C5)CC3)sc2cc1NC(=O)c1cccc(C(F)(F)F)n1` (stereo partly shown) [I-14]: the figures for the DC50 in test [1] and in test [2] were 0.05 to 0.1 µM and less than 0.05 µM, respectively.
Regarding `CN(CCCO[C@H]1C[C@H](Nc2cccc3c2C(=O)N(C2CCC(=O)NC2=O)C3=O)C1)C[C@H]1CC[C@H](c2nc3cc(C(C)(C)O)c(NC(=O)c4cccc(C(F)(F)F)n4)cc3s2)CC1` (stereo partly shown) [I-7], the half-maximal degradation concentration (DC50) in test [1] and in test [2] was less than 0.05 µM in each case.
